What follows are substances tested against HLA-B*44:05 (Homo sapiens, UniProt P01889, A223V/A65T/A93T/A95T/D201E/D98Y/E176V/E187L/E204Q/E69K/G107R/H137Y/K202T/L105A/L119I/N104T/N87E/Q56L/Q94N/R106L/R155S/R180D/S101N/S121R/S35A/S48T/T118I/V36M/W191S/Y91S) (assay: MHC binding assay (UV-ligand exchange, β2m ELISA, peptide exchange yield)). Conditions: binding to HLA-B*44:05.
Summary of the method: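 Peptide–HLA complexes formed by UV-ligand exchange of a UV-cleavable peptide for the test peptide. Exchange yield measured by β2m ELISA: complexes diluted 100-fold and captured on streptavidin, detected with HRP anti-β2m and TMB, read at 450 nm. Quantified against refolded HLA-A*02:01/MLA-001 monomer standards, 15-500 ng/ml.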

**Q.** With “311 (REKDLPNYNW; listed as Homo sapiens) [compound 311]” as the substance, how does the “Peptide exchange (MHC class I binding score, peptide exchange yield)” value (from here on “Peptide exchange”) read?
**A.** ++++ (>75% = ++++)

**Q.** With “117 (SEVPVDSHY; listed as Homo sapiens) [compound 117]” as the substance, how does the “Peptide exchange” value read?
**A.** +++ (>50 = +++)

**Q.** For “442 (KESDAGKYY; listed as Homo sapiens) [compound 442]”, which “Peptide exchange” value is on record?
**A.** +++ (>50 = +++)

**Q.** Which “Peptide exchange” value does the source give for “137 (EKGLISAF; listed as Homo sapiens) [compound 137]” here?
**A.** ++ (>20% = ++)

**Q.** For “349 (LEWQHPSSW; listed as Homo sapiens) [compound 349]”, which “Peptide exchange” value is on record?
**A.** ++++ (>75% = ++++)

**Q.** For “160 (AEIATTGQLY; listed as Homo sapiens) [compound 160]”, which “Peptide exchange” value is on record?
**A.** +++ (>50 = +++)

**Q.** For “84 (AETSYVKVLEY; listed as Homo sapiens) [compound 84]”, which “Peptide exchange” value is on record?
**A.** +++ (>50 = +++)

**Q.** “347 (LENPHVQSV; listed as Homo sapiens) [compound 347]” was tested. Which “Peptide exchange” value did it give?
**A.** +++ (>50 = +++)

**Q.** How did the “Peptide exchange” value turn out when “26 (EESSSPVDEY; listed as Homo sapiens) [compound 26]” was run?
**A.** ++ (>20% = ++)

**Q.** How did the “Peptide exchange” value turn out when “194 (TEGDVLNYIF; listed as Homo sapiens) [compound 194]” was run?
**A.** +++ (>50 = +++)

**Q.** With “225 (VEAATVSKW; listed as Homo sapiens) [compound 225]” as the substance, how does the “Peptide exchange” value read?
**A.** +++ (>50 = +++)

**Q.** Which “Peptide exchange” value does the source give for “282 (KEFGIGDLVW; listed as Homo sapiens) [compound 282]” here?
**A.** ++++ (>75% = ++++)

**Q.** “362 (SEVEYINKY; listed as Homo sapiens) [compound 362]” was tested. Which “Peptide exchange” value did it give?
**A.** +++ (>50 = +++)

**Q.** With “145 (EELRMLSF; listed as Homo sapiens) [compound 145]” as the substance, how does the “Peptide exchange” value read?
**A.** ++ (>20% = ++)

**Q.** How did the “Peptide exchange” value turn out when “130 (REYQEVMNSKL; listed as Homo sapiens) [compound 130]” was run?
**A.** +++ (>50 = +++)

**Q.** For “111 (QEIDQKRLEF; listed as Homo sapiens) [compound 111]”, which “Peptide exchange” value is on record?
**A.** ++ (>20% = ++)

**Q.** How did the “Peptide exchange” value turn out when “401 (VENIFHNF; listed as Homo sapiens) [compound 401]” was run?
**A.** ++ (>20% = ++)

What follows are substances tested on CD8+ T cells (assay: In vitro immunogenicity: T-cell priming with aAPCs loaded with peptide/MHC and anti-CD28, pMHC multimer readout). Conditions: Table 10a, pMHC multimer readout after T-cell priming.
Assay type: cell-based, human
Method: After three cycles of stimulation, the detection of peptide-reactive cells was performed by 2D multimer staining with B*44/SEQ ID NO: 469 (FIG. 3A), B*44/SEQ ID NO: 512 (FIG. 3B), B*44/SEQ ID NO: 9 (FIG. 3C), B*44/SEQ ID NO: 11 (D), B*44/SEQ ID NO: 17 (E), B*44/SEQ ID NO: 35 (F) or B*44/SEQ ID NO: 41 (FIG. 3G). Right panels (FIGS. 3A through 3G) show control staining of cells stimulated with irrelevant B*44/peptide complexes. Viable singlet cells were gated for CD8+ lymphocytes. Boolean gates helped excluding false-positive events detected with multimers specific for different peptides.
In order to obtain information regarding the immunogenicity of the TUMAPs of the present invention, the inventors performed investigations using an in vitro T-cell priming assay based on repeated stimulations of CD8+ T cells with artificial antigen presenting cells (aAPCs) loaded with peptide/MHC complexes and anti-CD28 antibody.
In order to perform in vitro stimulations by artificial antigen presenting cells loaded with peptide-MHC complex (pMHC) and anti-CD28 antibody, the inventors first isolated CD8+ T cells from fresh HLA-A*02 leukapheresis products via positive selection using CD8 microbeads (Miltenyi Biotec, Bergisch-Gladbach, Germany) of healthy donors obtained from the University clinics Mannheim, Germany, after informed consent.
PBMCs and isolated CD8+ lymphocytes were incubated in T-cell medium (TCM) until use consisting of RPMI-Glutamax (Invitrogen, Karlsruhe, Germany) supplemented with 10% heat inactivated human AB serum (PAN-Biotech, Aidenbach, Germany), 100 U/ml Penicillin/100 μg/ml Streptomycin (Cambrex, Cologne, Germany), 1 mM sodium pyruvate (CC Pro, Oberdorda, Germany), 20 μg/ml Gentamycin (Cambrex). 2.5 ng/ml IL-7 (PromoCell, Heidelberg, Germany) and 10 U/ml IL-2 (Novartis Pharma, Nümberg, Germany) were also added to the TCM at this step.
Generation of pMHC/anti-CD28 coated beads, T-cell stimulations and readout was performed in a highly defined in vitro system using four different pMHC molecules per stimulation condition and 8 different pMHC molecules per readout condition.
The purified co-stimulatory mouse IgG2a anti human CD28 Ab 9.3 (Jung et al., 1987) was chemically biotinylated using Sulfo-N-hydroxysuccinimidobiotin as recommended by the manufacturer (Perbio, Bonn, Germany). Beads used were 5.6 μm diameter streptavidin coated polystyrene particles (Bangs Laboratories, Illinois, USA).
800.000 beads/200 μl were coated in 96-well plates in the presence of 4×12.5 ng different biotin-pMHC, washed and 600 ng biotin anti-CD28 were added subsequently in a volume of 200 μl. Stimulations were initiated in 96-well plates by co-incubating 1×10^6 CD8+ T cells with 2×10^5 washed coated beads in 200 μl TCM supplemented with 5 ng/ml IL-12 (PromoCell) for 3 days at 37° C. Half of the medium was then exchanged by fresh TCM supplemented with 80 U/ml IL-2 and incubating was continued for 4 days at 37° C. This stimulation cycle was performed for a total of three times. For the pMHC multimer readout using 8 different pMHC molecules per condition, a two-dimensional combinatorial coding approach was used as previously described (Andersen et al., 2012) with minor modifications encompassing coupling to 5 different fluorochromes. Finally, multimeric analyses were performed by staining the cells with Live/dead near IR dye (Invitrogen, Karlsruhe, Germany), CD8-FITC antibody clone SK1 (BD, Heidelberg, Germany) and fluorescent pMHC multimers. For analysis, a BD LSRII SORP cytometer equipped with appropriate lasers and filters was used. Peptide specific cells were calculated as percentage of total CD8+ cells. Evaluation of multimeric analysis was done using the FlowJo software (Tree Star, Oregon, USA). In vitro priming of specific multimer+CD8+ lymphocytes was detected by comparing to negative control stimulations.

**Q.** Which “Wells positive [%]” value does the source give for “497 (GEGAYGKVF; listed as Homo sapiens) [compound 497]” here?
**A.** +++ (50%-69% = +++)

**Q.** How did the “Wells positive [%]” value turn out when “511 (AEAVLKTLQEL; listed as Homo sapiens) [compound 511]” was run?
**A.** + (<20% = +)

**Q.** For “468 (QEQDVDLVQKY; listed as Homo sapiens) [compound 468]”, which “Wells positive [%]” value is on record?
**A.** + (<20% = +)

**Q.** Which “Wells positive [%]” value does the source give for “470 (EDAQGHIW; listed as Homo sapiens) [compound 470]” here?
**A.** ++ (20%-49% = ++)

**Q.** For “469 (SEAFPSRAL; listed as Homo sapiens) [compound 469]”, which “Wells positive [%]” value is on record?
**A.** +++ (50%-69% = +++)

**Q.** For “459 (KEVDPAGHSY; listed as Homo sapiens) [compound 459]”, which “Wells positive [%]” value is on record?
**A.** ++ (20%-49% = ++)

**Q.** With “495 (RENQVLGSGW; listed as Homo sapiens) [compound 495]” as the substance, how does the “Wells positive [%]” value read?
**A.** +++ (50%-69% = +++)

**Q.** “463 (QEMQHFLGL; listed as Homo sapiens) [compound 463]” was tested. Which “Wells positive [%]” value did it give?
**A.** + (<20% = +)

**Q.** How did the “Wells positive [%]” value turn out when “513 (AEKDGKLTDY; listed as Homo sapiens) [compound 513]” was run?
**A.** + (<20% = +)

**Q.** For “510 (SEDLAVHLY; listed as Homo sapiens) [compound 510]”, which “Wells positive [%]” value is on record?
**A.** ++++ (>=70% = ++++)

**Q.** “479 (QENSYQSRL; listed as Homo sapiens) [compound 479]” was tested. Which “Wells positive [%]” value did it give?
**A.** + (<20% = +)

**Q.** With “515 (AEGGKVPIKW; listed as Homo sapiens) [compound 515]” as the substance, how does the “Wells positive [%]” value read?
**A.** ++ (20%-49% = ++)

**Q.** Which “Wells positive [%]” value does the source give for “488 (SENPETITY; listed as Homo sapiens) [compound 488]” here?
**A.** ++ (20%-49% = ++)

**Q.** For “485 (NEHPSNNW; listed as Homo sapiens) [compound 485]”, which “Wells positive [%]” value is on record?
**A.** + (<20% = +)

**Q.** “501 (KEGDLGGKQW; listed as Homo sapiens) [compound 501]” was tested. Which “Wells positive [%]” value did it give?
**A.** + (<20% = +)

**Q.** “509 (AESEDLAVHLY; listed as Homo sapiens) [compound 509]” was tested. Which “Wells positive [%]” value did it give?
**A.** + (<20% = +)

**Q.** For “512 (AEPLVGQRW; listed as Homo sapiens) [compound 512]”, which “Wells positive [%]” value is on record?
**A.** ++++ (>=70% = ++++)

**Q.** For “492 (AEHNFVAKA; listed as Homo sapiens) [compound 492]”, which “Wells positive [%]” value is on record?
**A.** + (<20% = +)

**Q.** How did the “Wells positive [%]” value turn out when “500 (QEVLLQTFL; listed as Homo sapiens) [compound 500]” was run?
**A.** + (<20% = +)

**Q.** How did the “Wells positive [%]” value turn out when “490 (TENRYCVQL; listed as Homo sapiens) [compound 490]” was run?
**A.** ++ (20%-49% = ++)

**Q.** For “516 (DEYLIPQQGF; listed as Homo sapiens) [compound 516]”, which “Wells positive [%]” value is on record?
**A.** + (<20% = +)

**Q.** “477 (VYEKNGYIYF; listed as Homo sapiens) [compound 477]” was tested. Which “Wells positive [%]” value did it give?
**A.** ++++ (>=70% = ++++)

**Q.** How did the “Wells positive [%]” value turn out when “491 (YEVDTVLRY; listed as Homo sapiens) [compound 491]” was run?
**A.** + (<20% = +)

**Q.** How did the “Wells positive [%]” value turn out when “489 (SEYADTHYF; listed as Homo sapiens) [compound 489]” was run?
**A.** +++ (50%-69% = +++)

**Q.** Which “Wells positive [%]” value does the source give for “476 (MEHPGKLLF; listed as Homo sapiens) [compound 476]” here?
**A.** + (<20% = +)

**Q.** With “461 (MEVDPIGHVYIF; listed as Homo sapiens) [compound 461]” as the substance, how does the “Wells positive [%]” value read?
**A.** + (<20% = +)

**Q.** How did the “Wells positive [%]” value turn out when “518 (FELPTGAGL; listed as Homo sapiens) [compound 518]” was run?
**A.** ++ (20%-49% = ++)

**Q.** Which “Wells positive [%]” value does the source give for “494 (KEITGFLLI; listed as Homo sapiens) [compound 494]” here?
**A.** ++ (20%-49% = ++)

**Q.** Which “Wells positive [%]” value does the source give for “487 (LEMPHYSTF; listed as Homo sapiens) [compound 487]” here?
**A.** +++ (50%-69% = +++)

**Q.** With “496 (AEIGEGAYGKVF; listed as Homo sapiens) [compound 496]” as the substance, how does the “Wells positive [%]” value read?
**A.** ++ (20%-49% = ++)

**Q.** “504 (KESQLPTVM; listed as Homo sapiens) [compound 504]” was tested. Which “Wells positive [%]” value did it give?
**A.** ++ (20%-49% = ++)
